Earlier results in US20010034325A1, “Dietary modulators of gamma glutamyl transpeptidase” (priority 2000, published 2001).

Experiments:
GGTP = GGTP (Homo sapiens, UniProt P19440); settings: Misra et al. 1996
GGT = settings: 12-o-tetradecanoyl phorbol-13-acetate induced activity

GGTP, sequence (P19440 whole entry): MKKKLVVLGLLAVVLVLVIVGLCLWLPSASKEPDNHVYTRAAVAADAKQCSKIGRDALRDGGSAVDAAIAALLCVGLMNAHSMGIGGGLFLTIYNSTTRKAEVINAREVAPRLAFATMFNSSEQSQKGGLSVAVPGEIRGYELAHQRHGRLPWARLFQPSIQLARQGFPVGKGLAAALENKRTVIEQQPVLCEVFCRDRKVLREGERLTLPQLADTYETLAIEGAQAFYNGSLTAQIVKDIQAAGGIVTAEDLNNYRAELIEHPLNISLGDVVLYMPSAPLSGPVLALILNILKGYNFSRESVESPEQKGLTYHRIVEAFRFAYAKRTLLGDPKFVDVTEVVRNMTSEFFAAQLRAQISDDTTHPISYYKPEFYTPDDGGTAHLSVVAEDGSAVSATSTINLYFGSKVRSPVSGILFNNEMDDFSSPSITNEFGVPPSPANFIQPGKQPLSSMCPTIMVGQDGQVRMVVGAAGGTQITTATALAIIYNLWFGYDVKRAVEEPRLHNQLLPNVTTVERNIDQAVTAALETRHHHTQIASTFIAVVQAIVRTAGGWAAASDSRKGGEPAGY

effect on diabetes (GGTP) | Compound | inhibition of GGT levels (GGT)
prevents overt diabetes | N[C@H](C(=O)O)[C@@H]1CC(Cl)=NO1 [acivicin] | 
 | C=CCSCC=C [diallylsulfide (DAS), diallylsulfide] | inhibited significantly
 | OCc1c[nH]c2ccccc12 [indole-3-carbinol (I3C), indole-3-carbinol] | inhibited significantly
